Source: US20230265116A1, “DEGRADATION OF (EGFR) BY CONJUGATION OF EGFR INHIBITORS WITH E3 LIGASE LIGAND AND METHODS OF USE” (BEIGENE, LTD., priority 2020, published 2023)

Key:
Format in all cases: cell-based
EGFR (HCC827 cells) = target: T1, EGFR (HCC827 cells) (Homo sapiens, UniProt P00533, DEL746-750); experiment: EGFR degradation HTRF assay, HCC827 cells; conditions: HCC827, 16h treatment; for Dmax: maximum percentage of degradation
T1 construct: endogenous in cells; host or cells: HCC827
Summary of the method: (§1)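 BaF3 (WT, Del19/T790M/C797S) and HCC827 cells exposed 16 h at 37 °C, 5% CO2 to compounds in 0.2% DMSO medium, 8 doses from 10 uM top, 5-fold steps. Lysates read by HTRF (665/620 nm); degradation % vs DMSO control, DC50 from four-parameter fit, Dmax as maximal degradation.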

[1] = target: T2, EGFR L858R/T790M/C797S (BaF3-LTC cells) (Homo sapiens, UniProt P00533, C797S/L858R/T790M); experiment: EGFR degradation HTRF assay, BaF3-LTC cells; conditions: BaF3-LTC, 16h treatment; for Dmax: maximum percentage of degradation, read-out: LTC Dmax (%); for DC50: read-out: LTC DC50
T2 construct: expressed in transfected cells; host or cells: BaF3
Summary of the method: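 EGFR remaining after a 16 h, 37 °C exposure (8 doses, 5-fold steps from 10 uM final, 0.2% DMSO) was quantified by HTRF antibodies in cell lysate. Percent inhibition relative to DMSO control was fitted by four-parameter logistic to give DC50; Dmax denotes maximal degradation.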

[2] = target: T3, EGFR L858R/T790M (H1975-clone #36, homozygous) (Homo sapiens, UniProt P00533, L858R/T790M); experiment: EGFR degradation HTRF assay, H1975-clone #36 cells; conditions: H1975 #36, 16h treatment; for Dmax: NCI-H1975, maximum percentage of degradation
T3 construct: designed to specifically target WT EGFR but preserve the L858R/T790M copy; host or cells: H1975-clone #36
Summary of the method: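 Eight-point, 5-fold series starting at 10 uM (0.2% DMSO) applied for 16 h, 37 °C, to a WT-EGFR-knockout H1975 clone carrying only L858R/T790M. Lysates read by HTRF overnight. Degradation percentage relative to DMSO control fitted for DC50, with Dmax as maximum degradation.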

EGFR WT (BaF3 WT cells) = target: T4, EGFR WT (BaF3 WT cells) (Homo sapiens, UniProt P00533); experiment: EGFR degradation HTRF assay, BaF3 WT cells; conditions: BaF3 WT, 16h treatment; for Dmax: maximum percentage of degradation, read-out: WT Dmax (%)
T4 construct: expressed in transfected cells; host or cells: BaF3
Description: BaF3 WT(wild type), BaF3-LTC(L858R/T790M/C797S) and BaF3-DTC(Del19/T790M/C797S) cells are treated with compounds diluted in 0.2% DMSO cell culture medium and incubate for 16h, 37° C., 5% CO2, H1975-#36, H1975-#28, H1975-#23 and HCC827 cells are treated with compounds diluted in 0.2% DMSO cell culture medium on day 2, incubate for 16h, 37° C., 5% CO2.the final concentriation of compounds in all assay is start with 10 uM, 5-fold dilution, total 8 doses were included.
After 16h treatment, add HTRF lysis buffer to each well; seal the plate and incubate 1 hour at room temperature on a plate shaker; Once the cells are lysed, 16 μL of cell lysate are transferred to a PE 384-well HTRF detection plate; 4 μL of pre-mixed HTRF antibodies are added to each well; Cover the plate with a plate sealer, spin 1000 rpm for 1 min, Incubate overnight at room temperature; Read on BMG PheraStar with HTRF protocol (337 nm-665 nm-620 nm).
The inhibition (degradation) percentage of the compound was calculated by the following equation: Inhibition percentage of Compound=100-100×(Signal-low control)/(High control-low control), wherein signal=each test compound group
High control=Cell group with added DMSO and without compound, indicating microplate readings without EGFR degradation;
Dmax is the maximum percentage of inhibition (degradation).
The IC50 (DC50) value of a compound can be obtained by fitting the following equation
Y=Bottom+(TOP−Bottom)/(1+((IC50/X)^hillslope))
Wherein, X and Y are known values, and IC50, Hillslope, Top and Bottom are the parameters obtained by fitting with software. Y is the inhibition percentage (calculated from the equation), X is the concentration of the compound; IC50 is the concentration of the compound when the 50% inhibition is reached. The smaller the IC50 value is, the stronger the inhibitory ability of the compound is. Vice versa, the higher the IC50 value is, the weaker the inhibitory ability of the compound is; Hillslope represents the slope of the fitted curve, generally around 1*; Bottom represents the minimum value of the curve obtained by data fitting, which is generally 0%±20%; Top represents the maximum value of the curve obtained by data fitting, which is generally 100%±20%. The experimental data were fitted by calculating and analyzing with Dotmatics data analysis software.

[3] = system: EGFR Del19/T790M/C797S (BaF3-DTC cells); experiment: EGFR degradation HTRF assay, BaF3-DTC cells; conditions: 16h treatment; for DTC Dmax (%): maximum percentage of degradation; for DC50: read-out: DTC DC50
Summary of the method: as §1

T4 sequence (P00533 25-1210): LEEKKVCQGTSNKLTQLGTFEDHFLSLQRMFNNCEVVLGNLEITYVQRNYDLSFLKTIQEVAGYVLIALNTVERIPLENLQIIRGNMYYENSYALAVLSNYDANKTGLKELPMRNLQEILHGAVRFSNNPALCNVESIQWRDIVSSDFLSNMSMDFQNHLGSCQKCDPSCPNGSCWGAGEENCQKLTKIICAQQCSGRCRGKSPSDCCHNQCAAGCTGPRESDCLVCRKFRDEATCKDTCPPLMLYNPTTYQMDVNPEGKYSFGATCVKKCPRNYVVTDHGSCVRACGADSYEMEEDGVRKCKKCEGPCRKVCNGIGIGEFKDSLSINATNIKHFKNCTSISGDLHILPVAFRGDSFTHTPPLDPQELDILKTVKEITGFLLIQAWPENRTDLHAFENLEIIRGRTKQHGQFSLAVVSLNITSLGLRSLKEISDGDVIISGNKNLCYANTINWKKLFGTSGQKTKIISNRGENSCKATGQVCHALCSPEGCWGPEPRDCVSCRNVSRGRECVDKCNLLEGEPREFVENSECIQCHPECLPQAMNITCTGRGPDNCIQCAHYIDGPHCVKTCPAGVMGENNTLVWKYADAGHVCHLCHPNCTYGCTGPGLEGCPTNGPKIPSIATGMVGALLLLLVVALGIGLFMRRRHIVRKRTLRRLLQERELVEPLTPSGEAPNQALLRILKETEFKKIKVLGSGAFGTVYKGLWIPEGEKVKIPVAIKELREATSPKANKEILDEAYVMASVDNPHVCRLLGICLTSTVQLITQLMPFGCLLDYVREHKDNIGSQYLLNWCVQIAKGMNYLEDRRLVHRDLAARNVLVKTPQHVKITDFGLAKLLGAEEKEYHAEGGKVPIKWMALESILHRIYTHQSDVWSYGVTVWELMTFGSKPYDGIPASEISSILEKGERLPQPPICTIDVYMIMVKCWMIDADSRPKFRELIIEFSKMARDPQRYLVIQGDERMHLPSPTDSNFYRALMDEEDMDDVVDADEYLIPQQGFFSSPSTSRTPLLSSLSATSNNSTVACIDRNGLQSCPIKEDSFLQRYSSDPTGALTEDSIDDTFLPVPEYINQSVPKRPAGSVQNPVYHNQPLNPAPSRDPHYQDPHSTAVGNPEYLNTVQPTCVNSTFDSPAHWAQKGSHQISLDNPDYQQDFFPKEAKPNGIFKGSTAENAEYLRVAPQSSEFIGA
T1 sequence (P00533 with tags, fused parts or gaps DEL746-750): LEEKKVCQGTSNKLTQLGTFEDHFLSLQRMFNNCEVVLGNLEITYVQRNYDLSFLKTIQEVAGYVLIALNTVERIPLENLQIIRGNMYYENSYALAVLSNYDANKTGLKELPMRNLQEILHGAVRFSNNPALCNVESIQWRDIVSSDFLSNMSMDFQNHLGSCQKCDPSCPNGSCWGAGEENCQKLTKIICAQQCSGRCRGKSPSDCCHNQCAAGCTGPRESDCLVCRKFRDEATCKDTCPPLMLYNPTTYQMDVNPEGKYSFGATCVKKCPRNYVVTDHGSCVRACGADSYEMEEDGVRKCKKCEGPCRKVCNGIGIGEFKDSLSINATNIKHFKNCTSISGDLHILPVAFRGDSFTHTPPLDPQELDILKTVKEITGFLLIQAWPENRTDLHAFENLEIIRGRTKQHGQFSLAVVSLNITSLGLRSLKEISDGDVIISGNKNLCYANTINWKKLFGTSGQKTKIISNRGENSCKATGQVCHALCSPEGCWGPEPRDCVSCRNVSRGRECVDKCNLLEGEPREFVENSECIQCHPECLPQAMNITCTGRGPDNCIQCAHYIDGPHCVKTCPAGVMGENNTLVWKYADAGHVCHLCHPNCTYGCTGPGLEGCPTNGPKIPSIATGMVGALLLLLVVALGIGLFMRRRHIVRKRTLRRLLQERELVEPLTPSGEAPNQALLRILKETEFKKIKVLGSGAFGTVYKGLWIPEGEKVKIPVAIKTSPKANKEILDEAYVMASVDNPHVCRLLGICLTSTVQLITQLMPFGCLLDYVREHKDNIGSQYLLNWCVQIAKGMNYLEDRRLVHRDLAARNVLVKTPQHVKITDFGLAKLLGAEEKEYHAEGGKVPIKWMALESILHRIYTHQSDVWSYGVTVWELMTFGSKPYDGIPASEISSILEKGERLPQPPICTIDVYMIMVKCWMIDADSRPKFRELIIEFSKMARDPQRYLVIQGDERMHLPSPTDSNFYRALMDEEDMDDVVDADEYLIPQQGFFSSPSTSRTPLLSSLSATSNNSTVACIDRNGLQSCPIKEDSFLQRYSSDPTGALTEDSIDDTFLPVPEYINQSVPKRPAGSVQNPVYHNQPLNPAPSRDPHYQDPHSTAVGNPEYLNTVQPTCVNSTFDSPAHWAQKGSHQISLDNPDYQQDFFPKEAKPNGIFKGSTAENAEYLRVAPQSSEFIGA
T2 sequence (P00533 25-1210 T790M/C797S/L858R): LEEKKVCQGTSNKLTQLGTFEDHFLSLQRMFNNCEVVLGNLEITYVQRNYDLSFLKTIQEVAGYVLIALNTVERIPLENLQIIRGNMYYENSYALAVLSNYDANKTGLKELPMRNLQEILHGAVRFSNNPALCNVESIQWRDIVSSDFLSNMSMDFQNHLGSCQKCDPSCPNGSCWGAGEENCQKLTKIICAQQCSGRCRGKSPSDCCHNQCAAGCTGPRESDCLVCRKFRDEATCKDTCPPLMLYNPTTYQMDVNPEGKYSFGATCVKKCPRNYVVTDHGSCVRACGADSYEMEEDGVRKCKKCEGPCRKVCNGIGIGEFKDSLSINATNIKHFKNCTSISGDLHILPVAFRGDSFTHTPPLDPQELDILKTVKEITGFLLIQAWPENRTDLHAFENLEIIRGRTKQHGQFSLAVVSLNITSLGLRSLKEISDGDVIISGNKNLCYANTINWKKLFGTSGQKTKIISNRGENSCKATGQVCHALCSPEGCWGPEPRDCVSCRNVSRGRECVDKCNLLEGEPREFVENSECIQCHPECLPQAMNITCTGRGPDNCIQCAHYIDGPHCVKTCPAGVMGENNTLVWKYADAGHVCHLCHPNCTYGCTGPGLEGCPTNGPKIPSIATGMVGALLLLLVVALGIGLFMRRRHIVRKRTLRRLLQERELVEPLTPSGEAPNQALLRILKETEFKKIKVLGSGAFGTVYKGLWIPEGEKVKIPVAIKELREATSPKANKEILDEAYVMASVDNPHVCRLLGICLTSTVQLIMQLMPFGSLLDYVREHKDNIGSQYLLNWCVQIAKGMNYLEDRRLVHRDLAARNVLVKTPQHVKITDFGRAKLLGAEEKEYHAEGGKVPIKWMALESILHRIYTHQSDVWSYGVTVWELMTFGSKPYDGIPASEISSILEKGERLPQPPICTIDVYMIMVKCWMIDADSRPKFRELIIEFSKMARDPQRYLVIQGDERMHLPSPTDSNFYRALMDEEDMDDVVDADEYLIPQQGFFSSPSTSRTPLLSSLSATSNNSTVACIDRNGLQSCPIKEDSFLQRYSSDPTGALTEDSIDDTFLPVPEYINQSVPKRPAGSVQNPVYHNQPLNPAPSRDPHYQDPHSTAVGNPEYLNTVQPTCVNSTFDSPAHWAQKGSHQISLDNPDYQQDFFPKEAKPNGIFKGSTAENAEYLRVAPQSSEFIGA
T3 sequence (P00533 25-1210 T790M/L858R): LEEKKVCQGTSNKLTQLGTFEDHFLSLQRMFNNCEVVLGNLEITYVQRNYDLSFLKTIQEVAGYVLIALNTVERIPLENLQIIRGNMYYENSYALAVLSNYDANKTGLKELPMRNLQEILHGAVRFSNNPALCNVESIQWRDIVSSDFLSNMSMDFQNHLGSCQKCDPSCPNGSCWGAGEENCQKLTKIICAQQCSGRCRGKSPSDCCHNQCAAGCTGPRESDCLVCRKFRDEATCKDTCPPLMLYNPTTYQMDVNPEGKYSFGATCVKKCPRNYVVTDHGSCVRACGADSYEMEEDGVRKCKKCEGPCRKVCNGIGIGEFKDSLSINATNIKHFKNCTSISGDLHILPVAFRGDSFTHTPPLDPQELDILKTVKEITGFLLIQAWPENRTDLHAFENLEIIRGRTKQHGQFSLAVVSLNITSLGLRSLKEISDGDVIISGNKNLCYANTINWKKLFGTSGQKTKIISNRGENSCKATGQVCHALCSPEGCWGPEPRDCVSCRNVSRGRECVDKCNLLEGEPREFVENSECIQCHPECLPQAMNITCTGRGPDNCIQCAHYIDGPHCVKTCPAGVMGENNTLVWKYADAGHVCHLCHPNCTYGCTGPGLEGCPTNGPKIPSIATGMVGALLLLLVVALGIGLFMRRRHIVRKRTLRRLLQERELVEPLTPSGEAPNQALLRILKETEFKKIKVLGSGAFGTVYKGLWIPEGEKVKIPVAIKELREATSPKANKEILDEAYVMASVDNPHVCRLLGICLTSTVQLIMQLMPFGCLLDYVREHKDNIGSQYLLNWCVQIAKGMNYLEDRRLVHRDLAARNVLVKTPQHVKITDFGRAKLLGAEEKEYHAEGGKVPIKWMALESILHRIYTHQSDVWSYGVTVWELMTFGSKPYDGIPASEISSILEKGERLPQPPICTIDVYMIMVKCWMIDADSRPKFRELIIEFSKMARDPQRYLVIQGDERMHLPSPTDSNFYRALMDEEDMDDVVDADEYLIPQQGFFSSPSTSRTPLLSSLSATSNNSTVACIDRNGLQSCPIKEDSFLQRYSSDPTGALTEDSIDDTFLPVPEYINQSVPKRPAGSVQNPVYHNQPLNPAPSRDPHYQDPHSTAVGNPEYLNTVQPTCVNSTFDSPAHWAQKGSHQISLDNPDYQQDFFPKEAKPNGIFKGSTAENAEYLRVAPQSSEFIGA

DC50 (EGFR (HCC827 cells)) [nM] | Dmax (EGFR (HCC827 cells)) [%] | Dmax [1] [%] | DC50 [2] [nM] | Dmax [2] [%] | DC50 (EGFR WT (BaF3 WT cells)) [nM] | Dmax (EGFR WT (BaF3 WT cells)) [%] | DC50 [1] [nM] | DC50 [3] [nM] | SMILES | DTC Dmax (%) [3] [%]
3.6 | 86.9 | 89.3 | 7.22 | 60.8 | > 10000 | 49.2 | – | – | CCc1cc(Nc2ncc(Br)c(Nc3ccc4nccnc4c3P(C)(C)=O)n2)c(OC)cc1N1CCC(N2CCN(CCc3ccc(C4CCC(=O)NC4=O)cc3)CC2)CC1 (stereo not drawn) [Example 1, 3-(4-(2-(4-(1-(4-((5-bromo-4-((5-(dimethylphosphoryl)quinoxalin-6-yl)amino)pyrimidin-2-yl)amino)-2-ethyl-5-methoxyphenyl)piperidin-4-yl)piperazin-1-yl)ethyl)phenyl)piperidine-2,6-dione] | –
15.9 | 88.8 | 21.2 | 12.4 | 79.7 | > 10000 | 21.6 | > 10000 | 273 | COc1cc(N2CCC(N3CCN(C(=O)CCN4CCC(c5ccc(C6CCC(=O)NC6=O)cc5)CC4)CC3)CC2)ccc1Nc1ncc(Cl)c(Nc2ccccc2N(C)S(C)(=O)=O)n1 (stereo not drawn) [Example 123, N-(2-((5-chloro-2-((4-(4-(4-(3-(4-(4-(2,6-dioxopiperidin-3-yl)phenyl)piperidin-1-yl)propanoyl)piperazin-1-yl)piperidin-1-yl)-2-methoxyphenyl)amino)pyrimidin-4-yl)amino)phenyl)-N-methylmethanesulfonamide] | 83.94
2.05 | 93.4 | 89 | 14.1 | 65.5 | > 10000 | 14.6 | 25.6 | 13.3 | CCc1cc(Nc2ncc(Br)c(Nc3ccc4nccnc4c3P(C)(C)=O)n2)c(OC)cc1N1CCC(N2CCN(CCC3CCN(c4ccc(C5CCC(=O)NC5=O)cc4)CC3)CC2)CC1 (stereo not drawn) [Example 23, 3-(4-(4-(2-(4-(1-(4-((5-bromo-4-((5-(dimethylphosphoryl)quinoxalin-6-yl)amino)pyrimidin-2-yl)amino)-2-ethyl-5-methoxyphenyl)piperidin-4-yl)piperazin-1-yl)ethyl)piperidin-1-yl)phenyl)piperidine-2,6-dione] | 95.73
6.2 | 80.8 | 81.2 | 8.6 | 71 | > 10000 | 26.2 | 21.6 | 15.1 | CCc1cc(Nc2ncc(Br)c(Nc3ccc4nccnc4c3P(C)(C)=O)n2)c(OC)cc1N1CCC(N2CCN(CCC3CCN(c4ccc(C5CCC(=O)NC5=O)c(C#N)c4)CC3)CC2)CC1 (stereo not drawn) [Example 34, 5-(4-(2-(4-(1-(4-((5-bromo-4-((5-(dimethylphosphoryl)quinoxalin-6-yl)amino)pyrimidin-2-yl)amino)-2-ethyl-5-methoxyphenyl)piperidin-4-yl)piperazin-1-yl)ethyl)piperidin-1-yl)-2-(2,6-dioxopiperidin-3-yl)benzonitrile] | 82.04
2.84 | 90 | 90.4 | 9.34 | 77.2 | > 10000 | 22.2 | 20.1 | 6.05 | CCc1cc(Nc2ncc(Br)c(Nc3ccc4nccnc4c3P(C)(C)=O)n2)c(OC)cc1N1CCC(N2CCN(C(=O)CCN3CCN(c4ccc5c(c4)C(=O)N(C4CCC(=O)NC4=O)C5=O)CC3)CC2)CC1 (stereo not drawn) [Example 61, 5-(4-(3-(4-(1-(4-((5-bromo-4-((5-(dimethylphosphoryl)quinoxalin-6-yl)amino)pyrimidin-2-yl)amino)-2-ethyl-5-methoxyphenyl)piperidin-4-yl)piperazin-1-yl)-3-oxopropyl)piperazin-1-yl)-2-(2,6-dioxopiperidin-3-yl)isoindoline-1,3-dione] | 96.02
4.42 | 76.6 | 90.4 | 9.23 | 64.5 | 2920 | 52.6 | 24.3 | 7.6 | CCc1cc(Nc2ncc(Br)c(Nc3ccc4nccnc4c3P(C)(C)=O)n2)c(OC)cc1N1CCC(N2CCN(CCc3ccc(NC4CCC(=O)NC4=O)cc3)CC2)CC1 (stereo not drawn) [Example 48, 3-((4-(2-(4-(1-(4-((5-bromo-4-((5-(dimethylphosphoryl)quinoxalin-6-yl)amino)pyrimidin-2-yl)amino)-2-ethyl-5-methoxyphenyl)piperidin-4-yl)piperazin-1-yl)ethyl)phenyl)amino)piperidine-2,6-dione] | 92.6
5.35 | 86.2 | 90.9 | 10.5 | 75 | > 10000 | 12.1 | 35.6 | 21.9 | CCc1cc(Nc2ncc(Br)c(Nc3ccc4nccnc4c3P(C)(C)=O)n2)c(OC)cc1N1CCC(N2CCN(CC3CCN(c4ccc5c(c4)C(=O)N(C4CCC(=O)NC4=O)C5=O)CC3)CC2)CC1 (stereo not drawn) [Example 272, 5-(4-((4-(1-(4-((5-bromo-4-((5-(dimethylphosphoryl)quinoxalin-6-yl)amino)pyrimidin-2-yl)amino)-2-ethyl-5-methoxyphenyl)piperidin-4-yl)piperazin-1-yl)methyl)piperidin-1-yl)-2-(2,6-dioxopiperidin-3-yl)isoindoline-1,3-dione] | 91.58
1.74 | 86.3 | 38.5 | – | – | > 10000 | 3.27 | > 2000 | 281 | CCc1cc(Nc2ncc(Br)c(Nc3ccc4nccnc4c3P(C)(C)=O)n2)c(OC)cc1N1CCC(N2CCN(C(=O)C3CCN(CC4CCN(c5ccc6c(c5)C(=O)N(C5CCC(=O)NC5=O)C6=O)CC4)CC3)CC2)CC1 (stereo not drawn) [Example 63, 5-(4-((4-(4-(1-(4-((5-bromo-4-((5-(dimethylphosphoryl)quinoxalin-6-yl)amino)pyrimidin-2-yl)amino)-2-ethyl-5-methoxyphenyl)piperidin-4-yl)piperazine-1-carbonyl)piperidin-1-yl)methyl)piperidin-1-yl)-2-(2,6-dioxopiperidin-3-yl)isoindoline-1,3-dione] | 52.42
– | – | 95 | – | – | > 10000 | 26.1 | 12.2 | 8.49 | CCc1cc(Nc2ncc(Br)c(Nc3ccc4nccnc4c3P(C)(C)=O)n2)c(OC)cc1N1CCC(N2CCN(CCC3CCN(c4ccc5c(c4)CN(C4CCC(=O)NC4=O)C5=O)CC3)CC2)CC1 (stereo not drawn) [Example 70, 3-(5-(4-(2-(4-(1-(4-((5-bromo-4-((5-(dimethylphosphoryl)quinoxalin-6-yl)amino)pyrimidin-2-yl)amino)-2-ethyl-5-methoxyphenyl)piperidin-4-yl)piperazin-1-yl)ethyl)piperidin-1-yl)-1-oxoisoindolin-2-yl)piperidine-2,6-dione] | 91.36
